{"source": "patent US7696379B2", "about": "“Acetylene derivatives” (Novartis AG, priority 2005, dated 2010)", "key": {"[1]": {"biological_target": "T1, hmGluR5 (Homo sapiens, UniProt P41594)", "T1 construct": "expressed in transfected cells", "T1 sequence (P41594 21-1180 isoform P41594-2 limits assumed)": "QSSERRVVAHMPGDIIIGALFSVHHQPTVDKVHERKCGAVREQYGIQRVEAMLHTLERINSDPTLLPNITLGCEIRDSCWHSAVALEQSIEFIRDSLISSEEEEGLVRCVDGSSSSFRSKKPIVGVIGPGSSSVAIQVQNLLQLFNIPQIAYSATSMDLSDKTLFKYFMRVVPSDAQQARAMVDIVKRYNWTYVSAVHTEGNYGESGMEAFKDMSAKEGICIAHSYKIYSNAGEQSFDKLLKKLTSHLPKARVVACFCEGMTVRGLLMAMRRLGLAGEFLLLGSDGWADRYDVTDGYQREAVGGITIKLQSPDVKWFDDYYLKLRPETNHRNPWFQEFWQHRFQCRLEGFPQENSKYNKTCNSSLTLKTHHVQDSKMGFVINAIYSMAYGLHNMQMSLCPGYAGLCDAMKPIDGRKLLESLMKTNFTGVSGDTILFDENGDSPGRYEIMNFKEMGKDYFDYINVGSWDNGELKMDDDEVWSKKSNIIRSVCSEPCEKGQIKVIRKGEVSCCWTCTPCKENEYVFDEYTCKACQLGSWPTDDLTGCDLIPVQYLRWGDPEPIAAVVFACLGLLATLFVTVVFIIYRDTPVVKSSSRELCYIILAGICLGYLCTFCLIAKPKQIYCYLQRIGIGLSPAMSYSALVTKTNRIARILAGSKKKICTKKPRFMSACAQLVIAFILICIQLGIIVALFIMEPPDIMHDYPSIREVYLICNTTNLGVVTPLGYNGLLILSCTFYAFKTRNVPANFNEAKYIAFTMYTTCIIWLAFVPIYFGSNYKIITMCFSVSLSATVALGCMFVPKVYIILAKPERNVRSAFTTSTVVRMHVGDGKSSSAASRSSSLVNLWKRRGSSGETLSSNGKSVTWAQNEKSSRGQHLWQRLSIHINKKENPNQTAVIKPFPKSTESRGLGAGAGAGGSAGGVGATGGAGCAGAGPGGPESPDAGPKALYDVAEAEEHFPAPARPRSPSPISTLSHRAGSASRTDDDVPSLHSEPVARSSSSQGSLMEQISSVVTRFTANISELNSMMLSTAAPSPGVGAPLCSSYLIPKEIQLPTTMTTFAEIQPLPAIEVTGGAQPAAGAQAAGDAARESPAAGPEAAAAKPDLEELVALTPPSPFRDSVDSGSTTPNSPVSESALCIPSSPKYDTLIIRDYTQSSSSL", "assay": "inhibition of agonist induced inositol phosphate turnover in hmGluR5 expressing cells", "type": "cell-based", "conditions": "read-out: IC50 concentration, inhibition of quinqualate-induced inositol phosphate turnover", "from_the_text": "This can be determined in vitro for example at recombinant human metabotropic glutamate receptors, especially PLC-coupled subtypes thereof such as mGluR5, using different procedures like, for example, measurement of the inhibition of the agonist induced elevation of intracellular Ca^2+ concentration in accordance with L. P. Daggett et al., Neuropharm. Vol. 34, pages 871-886 (1995), P. J. Flor et al., J. Neurochem. Vol. 67, pages 58-63 (1996) or by determination to what extent the agonist induced elevation of the inositol phosphate turnover is inhibited as described by T. Knoepfel et al., Eur. J. Pharmacol. Vol. 288, pages 389-392 (1994), L. P. Daggett et al., Neuropharm. Vol. 67, pages 58-63 (1996) and references cited therein. Isolation and expression of human mGluR subtypes are described in U.S. Pat. No. 5,521,297. Selected agents of the invention show IC50 values for the inhibition of the agonist (e.g. glutamate or quisqualate) induced elevation of intracellular Ca2+ concentration or the agonist (e.g. glutamate or quisqualate) induced inositol phosphate turnover, measured in recombinant cells expressing hmGluR5a of about 1 nM to about 50 μM."}, "[2]": {"tested_on": "stress-induced hyperthermia in mice", "assay": "stress-induced hyperthermia in mice", "type": "in vivo", "conditions": "control hyperthermia 0.82+/−0.1° C.", "protocol": "A. Lecci et al., Psychopharmacol. 101, 255-261]. At doses of about 0.1 to about 30 mg/kg p.o., selected agents of the invention reverse the stress-induced hyperthermia.\nWith Furan-3-carboxylic acid [(1R,3R)-3-(3-chloro-phenylethynyl)-3-hydroxy-cyclohexyl]-amide, a stress-induced hyperthermia of 0.82+/−0.1° C. was reduced to 0.37+/−0.10° C. at 3 mg/kg p.o., to 0.02+/−0.08° C. at 10 mg/kg p.o. and to −0.49+/−0.12° C. at 30 mg/kg p.o. (p<0.01; p<0.001; p<0.001 respectively)."}}}
{"smiles": "Cc1cccc(C#C[C@@]2(O)CCC[C@@H](NC(=O)c3ccoc3)C2)c1", "note": "(racemic) [Example 1.19, Furan-3-carboxylic acid ((±)-(1R,3R)-3-hydroxy-3-m-tolylethynyl-cyclohexyl)-amide]", "values": [{"measurement": "melting point", "value": "135 to 138", "unit": "°C"}]}
{"smiles": "O=C(N[C@@H]1CCC[C@](O)(C#Cc2cccc(F)c2)C1)c1cnc[nH]1", "note": "(racemic) [Example 1.37, 3H-Imidazole-4-carboxylic acid [(±)-(1R,3R)-3-(3-fluoro-phenylethynyl)-3-hydroxy-cyclohexyl]-amide]", "values": [{"measurement": "melting point", "value": "190 to 191", "unit": "°C"}]}
{"smiles": "O=C(N[C@@H]1CCC[C@](O)(C#Cc2cccc(Cl)c2)C1)c1ccoc1", "note": "[Example 1, Furan-3-carboxylic acid [(1R,3R)-3-(3-chloro-phenylethynyl)-3-hydroxy-cyclohexyl]-amide]", "values": [{"measurement": "IC50", "setting": "[1]", "value": 0.028, "unit": "µM"}, {"measurement": "stress-induced hyperthermia", "setting": "[2]; 3 mg/kg p.o., p<0.01", "value": "0.37+/−0.10 °C"}, {"measurement": "stress-induced hyperthermia", "setting": "[2]; 10 mg/kg p.o., p<0.001", "value": "0.02+/−0.08 °C"}, {"measurement": "stress-induced hyperthermia", "setting": "[2]; 30 mg/kg p.o., p<0.001", "value": "−0.49+/−0.12 °C"}]}
{"smiles": "Cc1cccc(C#C[C@@]2(O)CCC[C@@H](NC(=O)c3ccco3)C2)c1", "note": "[Example 1.20, Furan-2-carboxylic acid ((1R,3R)-3-hydroxy-3-m-tolylethynyl-cyclohexyl)-amide]", "values": [{"measurement": "melting point", "value": "139 to 142", "unit": "°C"}]}
{"smiles": "Cc1cccc(C#C[C@]2(O)CCC[C@H](NC(=O)c3ccco3)C2)c1", "note": "[Example 1.21, Furan-2-carboxylic acid ((1S,3S)-3-hydroxy-3-m-tolylethynyl-cyclohexyl)-amide]", "values": [{"measurement": "melting point", "value": "139 to 140", "unit": "°C"}]}
